Data: patent US20060013769A1, “Transdermal drug delivery formulations and method of determining optimal amounts of vasodilators therein” (priority 2004, published 2006)

Tests used:
Format in all cases: in vivo
[1] = Topical ibuprofen vehicle with papaverine applied to rabbits, ibuprofen in plasma over three hours
Description: (§1) Test formulations containing 15% ibuprofen-sodium salt, 5% oleic acid, 10% menthol, 5% propylene glycol, 10% dimethylacetamide, 1% decylmethylsulfoxide, 1% u-care, varying amounts of papaverine ranging from 0-1%, and 52-53% deionized water were each blended in a beaker with a mechanical mixer and heated to 40° C. for 30 minutes until clear, then cooled to room temperature.
(§2) 150 mg of sodium salt-ibuprofen was formulated with the above lipid-based vehicle formulatiosn containing increasing amounts of the vasodilator papaverine. The Ibuprofen vehicle was topically applied to rabbits and blood samples were taken over a three-hour period. Plasma was prepared and analyzed for the amount of ibuprofen present in the blood. The data represents the integrated value of ibuprofen concentration in the blood for the three hour time period for each concentration of papaverine.

[2] = Topical ibuprofen vehicle with tocopherol nicotinate applied to rabbits, ibuprofen in plasma over three hours
Description: as §1, with “tocopherol nicotinate in the range of” for “papaverine ranging from”
as §2, with “with a 1-gram dose of” for “with”, “formulations” for “formulatiosn”, “containing the” for “containing”, “tocopherol nicotinate.” for “papaverine.”

[3] = Topical ibuprofen vehicle with tolazoline applied to rabbits, ibuprofen in plasma over three hours
Description: as §1, with “tolazoline” for “papaverine”, “0-0.1%,” for “0-1%,”, “52.9-53%” for “52-53%”
as §2, with “tolazoline.” for “papaverine.”

blood flow = assay: Maximal blood flow stimulated by vasodilator, laser Doppler perfusion imager
Description: Maximal blood flow stimulated by the vasodilator tolazoline was measured using a laser Doppler perfusion imager.

Structure (SMILES): CC(C)Cc1ccc(C(C)C(=O)O)cc1 (centres unmarked) [Ibuprofen, ibuprofen]
- integrated value of ibuprofen concentration in the blood (0-3 hr) ([1]; 0.00010% papaverine in vehicle): 5120 ng·h/mL
- integrated value of ibuprofen concentration in the blood (0-3 hr) ([1]; 0.00025% papaverine in vehicle): 4470 ng·h/mL
- integrated value of ibuprofen concentration in the blood (0-3 hr) ([1]; 0.00050% papaverine in vehicle): 8370 ng·h/mL
- integrated value of ibuprofen concentration in the blood (0-3 hr) ([1]; 0.0010% papaverine in vehicle): 7620 ng·h/mL
- integrated value of ibuprofen concentration in the blood (0-3 hr) ([1]; 0.0100% papaverine in vehicle): 5720 ng·h/mL
- integrated value of ibuprofen concentration in the blood (0-3 hr) ([1]; 0.100% papaverine in vehicle): 4230 ng·h/mL
- integrated value of ibuprofen concentration in the blood (0-3 hr) ([1]; 1.000% papaverine in vehicle): 6160 ng·h/mL
- integrated value of ibuprofen concentration in the blood (0-3 hr) ([1]; Control (no papaverine), 150 mg sodium salt-ibuprofen in vehicle): 1030 ng·h/mL
- integrated value of ibuprofen concentration in the blood (0-3 hr) ([2]; 0.00010% tocopherol nicotinate in vehicle): 3980 ng·h/mL
- integrated value of ibuprofen concentration in the blood (0-3 hr) ([2]; 0.00025% tocopherol nicotinate in vehicle): 9480 ng·h/mL
- integrated value of ibuprofen concentration in the blood (0-3 hr) ([2]; 0.00050% tocopherol nicotinate in vehicle): 3120 ng·h/mL
- integrated value of ibuprofen concentration in the blood (0-3 hr) ([2]; 0.0010% tocopherol nicotinate in vehicle): 5080 ng·h/mL
- integrated value of ibuprofen concentration in the blood (0-3 hr) ([2]; 0.0100% tocopherol nicotinate in vehicle): 5840 ng·h/mL
- integrated value of ibuprofen concentration in the blood (0-3 hr) ([2]; 0.100% tocopherol nicotinate in vehicle): 4300 ng·h/mL
- integrated value of ibuprofen concentration in the blood (0-3 hr) ([2]; 1.000% tocopherol nicotinate in vehicle): 4400 ng·h/mL
- integrated value of ibuprofen concentration in the blood (0-3 hr) ([2]; Control (no tocopherol nicotinate), 150 mg sodium salt-ibuprofen in 1 g vehicle): 1030 ng·h/mL
- integrated value of ibuprofen concentration in the blood (0-3 hr) ([3]; 0.0010% tolazoline in vehicle): 3900 ng·h/mL
- integrated value of ibuprofen concentration in the blood (0-3 hr) ([3]; 0.0050% tolazoline in vehicle): 5240 ng·h/mL
- integrated value of ibuprofen concentration in the blood (0-3 hr) ([3]; 0.0100% tolazoline in vehicle): 5660 ng·h/mL
- integrated value of ibuprofen concentration in the blood (0-3 hr) ([3]; 0.0500% tolazoline in vehicle): 3530 ng·h/mL
- integrated value of ibuprofen concentration in the blood (0-3 hr) ([3]; 0.100% tolazoline in vehicle): 4530 ng·h/mL
- integrated value of ibuprofen concentration in the blood (0-3 hr) ([3]; Control (no tolazoline), 150 mg sodium salt-ibuprofen in vehicle): 1030 ng·h/mL

Structure (SMILES): c1ccc(CC2=NCCN2)cc1 [tolazoline]
- concentration at which the maximum blood flow was achieved (blood flow): 0.5%
